Test results published in ChEMBL document CHEMBL5727499, “Derivatives and methods of treating hepatitis B infections” (2020).
Entries after “also recorded” stand apart in the source; their conditions may differ.

Assay: HBV Replication Inhibition Assay: HBV replication inhibition by the compounds of this invention could be determined in cells infected or transfected with HBV, or cells with stably integrated HBV, such as HepG2.2.15 cells (Sells et al. 1987). In this example, HepG2.2.15 cells were maintained in cell culture medium containing 10% fetal bovine serum (FBS), Geneticin, L-glutamine, penicillin and streptomycin. HepG2.2.15 cells could be seeded in 96-well plates at a density of 40,000 cells/well and be treated with serially diluted compounds at a final DMSO concentration of 0.5% either alone or in combination by adding drugs in a checker box format. Cells were incubated with compounds for three days, after which medium was removed and fresh medium containing compounds was added to cells and incubated for another three days. At day 6, supernatant was removed and treated with DNase at 37° C. for 60 minutes, followed by enzyme inactivation at 75° C. for 15 minutes. Encapsidated HBV DNA was released from the virions and covalently linked HBV polymerase by incubating in lysis buffer (Affymetrix QS0010) containing 2.5 μg proteinase K at 50° C. for 40 minutes. HBV DNA was denatured by addition of 0.2 M NaOH and detected using a branched DNA (BDNA) QuantiGene assay kit according to manufacturer recommendation (Affymetrix). HBV DNA levels could also be quantified using qPCR, based on amplification of encapsidated HBV DNA extraction with QuickExtraction Solution (Epicentre Biotechnologies) and amplification of HBV DNA using HBV specific PCR probes that can hybridize to HBV DNA and a fluorescently labeled probe for quantitation. In addition, cell viability of HepG2.2.15 cells incubated with test compounds alone or in combination was determined by using CellTitre-Glo reagent according to the manufacturer protocol (Promega). The mean background signal from wells containing only culture medium was subtracted from all other samples, and percent inhibition at each compound concentration was calculated by normalizing to signals from HepG2.2.15 cells treated with 0.5% DMSO using equation E1.% inhibition=(DMSOave−Xi)/DMSOave×100% E1:where DMSOave is the mean signal calculated from the wells that were treated with DMSO control (0% inhibition control) and Xi is the signal measured from the individual wells. EC50 values, effective concentrations that achieved 50% inhibitory effect, were determined by non-linear fitting using Graphpad Prism software (San Diego, Calif.) and equation E2Y=Y min+(Y max−Y min)/(1+10(Log EC50−X)×HillSlope) E2:where Y represents percent inhibition values and X represents the logarithm of compound concentrations.
Details: not given

Row | Compound | EC50
1 | CC1Cc2[nH]nc(C3CCCO3)c2CN1C(=O)Nc1ccc(F)c(C#N)c1 (stereo not drawn) | in the range around 300 nM
2 | CC1Cc2[nH]nc(C3CCCC3)c2CN1C(=O)Nc1ccc(F)c(C#N)c1 (stereo not drawn) | in the range around 55 nM
3 | CC1Cc2[nH]nc(C3CCC3)c2CN1C(=O)Nc1cccc(C#N)c1F (stereo not drawn) | in the range around 300 nM
4 | CC1Cc2[nH]nc(C3CCCC3)c2CN1C(=O)Nc1cccc(Cl)c1 (stereo not drawn) | in the range around 55 nM
5 | CC1Cc2[nH]nc(C3CCCO3)c2CN1C(=O)Nc1ccc(F)c(Cl)c1 (stereo not drawn) | in the range around 55 nM
6 | Cc1cc(NC(=O)N2Cc3c(C4CCCC4)n[nH]c3CC2C)ccc1F (stereo not drawn) | in the range around 55 nM
7 | CC1Cc2[nH]nc(C3CCCC3)c2CN1C(=O)Nc1ccc(F)c(Br)c1 (stereo not drawn) | in the range around 55 nM
8 | CC1Cc2[nH]nc(C3CCCO3)c2CN1C(=O)Nc1ccc(F)c(Br)c1 (stereo not drawn) | in the range around 55 nM; also recorded: in the range around 300 nM
9 | Cc1cccc(NC(=O)N2Cc3c(C4CCCC4)n[nH]c3CC2C)c1 (stereo not drawn) | in the range around 55 nM
10 | CC1Cc2[nH]nc(C3CCCC3)c2CN1C(=O)Nc1ccc(F)c(Cl)c1 (stereo not drawn) | in the range around 55 nM
11 | Cc1cc(NC(=O)N2Cc3c(C4CCCO4)n[nH]c3CC2C)ccc1F (stereo not drawn) | in the range around 55 nM; also recorded: in the range around 300 nM
12 | CC1Cc2[nH]nc(C3CCCC3)c2CN1C(=O)Nc1cccc(Br)c1 (stereo not drawn) | in the range around 55 nM
13 | CC1Cc2[nH]nc(C3CCCC3)c2CN1C(=O)Nc1ccnc(Br)c1F (stereo not drawn) | in the range around 55 nM
14 | CC1Cc2[nH]nc(C3CCC3)c2CN1C(=O)Nc1ccnc(Br)c1F (stereo not drawn) | in the range around 300 nM

Same assay, conditions: HepG2.2.15

Row | Compound | EC50
15 | O=C(Nc1cccc(Br)c1)N1CCc2[nH]nc(C34CCCC3C4)c2C1 (stereo not drawn) | in the range around 55 nM
16 | N#Cc1cccc(NC(=O)N2CCc3[nH]nc(C45CCCC4C5)c3C2)c1F (stereo not drawn) | in the range around 55 nM
17 | O=C(Nc1cccc(Cl)c1)N1CCc2[nH]nc(O)c2C1 | > 10000 nM
18 | O=C(Nc1cccc(Br)c1)N1CCc2[nH]nc(C3CCC3)c2C1 | in the range around 55 nM
19 | CC1Cc2[nH]nc(C3CCCO3)c2CN1C(=O)Nc1cccc(Cl)c1 (stereo not drawn) | in the range around 55 nM
20 | O=C(Nc1ccnc(Cl)c1F)N1CCc2[nH]nc(C34CCCC3C4)c2C1 (stereo not drawn) | in the range around 55 nM
21 | O=C(Nc1ccnc(Cl)c1F)N1CCc2[nH]nc(C3CCC3)c2C1 | in the range around 300 nM
22 | CC1Cc2[nH]nc(C3CCC3)c2CN1C(=O)Nc1ccc(F)c(F)c1 (stereo not drawn) | in the range around 55 nM
23 | O=C(Nc1ccc(F)c(Br)c1)N1CCc2[nH]nc(C34CCCC3C4)c2C1 (stereo not drawn) | in the range around 55 nM
24 | O=C(Nc1ccc(F)c(Cl)c1)N1CCc2[nH]nc(C3CCC3)c2C1 | in the range around 55 nM
25 | O=C(Nc1cccc(Cl)c1)N1CCc2[nH]nc(C3CCC(O)C3)c2C1 (stereo not drawn) | in the range around 300 nM
26 | CC1Cc2[nH]nc(C3CCCO3)c2CN1C(=O)Nc1ccc(F)c(C#N)c1 (stereo not drawn) | in the range around 300 nM
27 | O=C(Nc1ccc(F)c(Br)c1)N1CCc2[nH]nc(C3CCC3)c2C1 | in the range around 55 nM
28 | O=C(Nc1cccc(Cl)c1)N1CCc2[nH]nc(C3CCCO3)c2C1 (stereo not drawn) | in the range around 55 nM
29 | O=C(Nc1ccnc(Br)c1F)N1CCc2[nH]nc(C3CCC3)c2C1 | in the range around 300 nM
30 | CC1Cc2[nH]nc(C3CCCC3)c2CN1C(=O)Nc1ccc(F)c(C#N)c1 (stereo not drawn) | in the range around 55 nM
31 | CC1Cc2[nH]nc(C3CCC3)c2CN1C(=O)Nc1cccc(C#N)c1F (stereo not drawn) | in the range around 300 nM
32 | CC1Cc2[nH]nc(C3CCC3)c2CN1C(=O)Nc1cccc(Br)c1F (stereo not drawn) | in the range around 300 nM
33 | CC(C)(C)c1n[nH]c2c1CN(C(=O)Nc1cccc(Cl)c1)CC2 | in the range around 300 nM
34 | O=C(Nc1ccc(F)c(Cl)c1)N1CCc2[nH]nc(C34CCCC3C4)c2C1 (stereo not drawn) | in the range around 55 nM
35 | O=C(Nc1cccc(Cl)c1)N1CCc2[nH]nc(C3=CCCCC3)c2C1 | in the range around 55 nM
36 | Cc1cccc(NC(=O)N2CCc3[nH]nc(C4CCC4)c3C2)c1 | in the range around 300 nM
37 | C=C(C)c1n[nH]c2c1CN(C(=O)Nc1cccc(C)c1)CC2 | in the range around 300 nM
38 | CCC(F)(F)c1n[nH]c2c1CN(C(=O)Nc1cccc(Cl)c1)CC2 | in the range around 300 nM
39 | CC1Cc2[nH]nc(C3CCCC3)c2CN1C(=O)Nc1cccc(Cl)c1 (stereo not drawn) | in the range around 55 nM

Row | Compound | EC50
40 | CC1(c2n[nH]c3c2CN(C(=O)Nc2cccc(Cl)c2)CC3)CC1 | in the range around 300 nM
41 | CC(C)c1n[nH]c2c1CN(C(=O)Nc1cccc(Cl)c1)CC2 | in the range around 300 nM
42 | O=C(Nc1ccc(F)c(F)c1)N1CCc2[nH]nc(C34CCCC3C4)c2C1 (stereo not drawn) | in the range around 300 nM
43 | O=C(Nc1cccc(Br)c1F)N1CCc2[nH]nc(C3CCC3)c2C1 | in the range around 55 nM
44 | CC1Cc2[nH]nc(C3CCCO3)c2CN1C(=O)Nc1ccnc(Br)c1F (stereo not drawn) | 750 nM
45 | CC1Cc2[nH]nc(C3CCCO3)c2CN1C(=O)Nc1ccc(F)c(Cl)c1 (stereo not drawn) | in the range around 55 nM
46 | O=C(Nc1cccc(Cl)c1)N1CCc2[nH]nc(C3CCCC3)c2C1 | in the range around 55 nM
47 | Cc1cc(NC(=O)N2Cc3c(C4CCCC4)n[nH]c3CC2C)ccc1F (stereo not drawn) | in the range around 55 nM
48 | CC1Cc2[nH]nc(C3CCC3)c2CN1C(=O)Nc1ccc(F)c(Br)c1 (stereo not drawn) | in the range around 55 nM
49 | Cc1cc(NC(=O)N2CCc3[nH]nc(C4CCC4)c3C2)ccc1F | in the range around 55 nM
50 | C=C(C)c1n[nH]c2c1CN(C(=O)Nc1cccc(Cl)c1)CC2 | in the range around 55 nM
51 | CC1Cc2[nH]nc(C3CCC3)c2CN1C(=O)Nc1cccc(Br)c1 (stereo not drawn) | in the range around 55 nM
52 | Cc1cc(NC(=O)N2Cc3c(C4CCC4)n[nH]c3CC2C)ccc1F (stereo not drawn) | in the range around 55 nM
53 | O=C(Nc1ccc(F)c(F)c1)N1CCc2[nH]nc(C3CCC3)c2C1 | in the range around 300 nM
54 | O=C(Nc1cccc(Cl)c1)N1CCc2[nH]nc(Br)c2C1 | > 10000 nM
55 | CC(CO)c1n[nH]c2c1CN(C(=O)Nc1cccc(Cl)c1)CC2 (stereo not drawn) | > 10000 nM
56 | CC1Cc2[nH]nc(C3CCCO3)c2CN1C(=O)Nc1cccc(Br)c1 (stereo not drawn) | in the range around 55 nM
57 | CCC(C)(C)c1n[nH]c2c1CN(C(=O)Nc1cccc(Cl)c1)CC2 | in the range around 300 nM
58 | Cc1cc(NC(=O)N2CCc3[nH]nc(C45CCCC4C5)c3C2)ccc1F (stereo not drawn) | in the range around 55 nM
59 | N#Cc1cc(NC(=O)N2CCc3[nH]nc(C45CCCC4C5)c3C2)ccc1F (stereo not drawn) | in the range around 55 nM
60 | CC1Cc2[nH]nc(C3CCCC3)c2CN1C(=O)Nc1ccc(F)c(Br)c1 (stereo not drawn) | in the range around 55 nM
61 | C=C(C)c1n[nH]c2c1CN(C(=O)Nc1ccnc(Cl)c1F)CC2 | in the range around 300 nM
62 | O=C(Nc1cccc(Cl)c1)N1CCc2[nH]nc(C3=CCCC3)c2C1 | in the range around 55 nM
63 | O=C(Nc1cccc(Cl)c1)N1CCc2[nH]nc(C34CCCC3C4)c2C1 (stereo not drawn) | in the range around 55 nM
64 | O=C(Nc1ccnc(Br)c1F)N1CCc2[nH]nc(C34CCCC3C4)c2C1 (stereo not drawn) | in the range around 55 nM

Row | Compound | EC50
65 | O=C(Nc1cccc(Cl)c1)N1CCc2[nH]nc(C3=CC(F)CC3)c2C1 (stereo not drawn) | in the range around 55 nM
66 | Cc1cccc(NC(=O)N2Cc3c(C4CCCC4)n[nH]c3CC2C)c1 (stereo not drawn) | in the range around 55 nM
67 | CC1Cc2[nH]nc(C3CCCC3)c2CN1C(=O)Nc1ccc(F)c(Cl)c1 (stereo not drawn) | in the range around 55 nM
68 | CC1(c2n[nH]c3c2CN(C(=O)Nc2cccc(Cl)c2)CC3)CCC1 | in the range around 55 nM
69 | CCCc1n[nH]c2c1CN(C(=O)Nc1cccc(Cl)c1)CC2 | in the range around 300 nM
70 | O=C(Nc1cccc(Cl)c1)N1CCc2[nH]nc(N3CCCC3)c2C1 | in the range around 300 nM
71 | O=C(Nc1cccc(Cl)c1)N1CCc2[nH]nc(C3=CCOCC3)c2C1 | in the range around 300 nM
72 | C=C(C)c1n[nH]c2c1CN(C(=O)Nc1cccc(Br)c1F)CC2 | in the range around 55 nM
73 | CC(C)(O)c1n[nH]c2c1CN(C(=O)Nc1cccc(Cl)c1)CC2 | > 10000 nM
74 | CC1Cc2[nH]nc(C3CCCC3)c2CN1C(=O)Nc1cccc(Br)c1 (stereo not drawn) | in the range around 55 nM
75 | O=C(Nc1cccc(Cl)c1)N1CCc2[nH]nc(C3CCC3)c2C1 | in the range around 55 nM
76 | O=C(Nc1cccc(Cl)c1)N1CCc2[nH]nc(C3(C(F)(F)F)CC3)c2C1 | in the range around 300 nM
77 | Cc1cccc(NC(=O)N2Cc3c(C4CCC4)n[nH]c3CC2C)c1 (stereo not drawn) | in the range around 55 nM
78 | O=C(Nc1cccc(Cl)c1)N1CCc2[nH]nc(C3CC3)c2C1 | in the range around 300 nM
79 | CC1Cc2[nH]nc(C3CCCC3)c2CN1C(=O)Nc1ccnc(Br)c1F (stereo not drawn) | in the range around 55 nM
80 | Cc1cccc(NC(=O)N2Cc3c(C4CCCO4)n[nH]c3CC2C)c1 (stereo not drawn) | in the range around 300 nM
81 | CC1Cc2[nH]nc(C3CCC3)c2CN1C(=O)Nc1ccnc(Br)c1F (stereo not drawn) | in the range around 300 nM
82 | O=C(Nc1cccc(Br)c1F)N1CCc2[nH]nc(C34CCCC3C4)c2C1 (stereo not drawn) | in the range around 55 nM
83 | CC1Cc2[nH]nc(C3CCC3)c2CN1C(=O)Nc1ccc(F)c(C#N)c1 (stereo not drawn) | in the range around 55 nM
84 | O=C(Nc1cccc(Cl)c1)N1CCc2[nH]nc(C3CCOCC3)c2C1 | in the range around 300 nM
85 | CCCC(F)(F)c1n[nH]c2c1CN(C(=O)Nc1cccc(Cl)c1)CC2 | in the range around 55 nM
86 | N#Cc1cc(NC(=O)N2CCc3[nH]nc(C4CCC4)c3C2)ccc1F | in the range around 55 nM
87 | O=C(Nc1cccc(Cl)c1)N1CCc2[nH]nc(C3CC=CC3)c2C1 | in the range around 55 nM
88 | Cc1cccc(NC(=O)N2CCc3[nH]nc(C45CCCC4C5)c3C2)c1 (stereo not drawn) | in the range around 55 nM
